Results on one substance are retold here after patent US20060039996A1, “Method for treating sepsis” (priority 2004, published 2006).

The experiment concerns B. Pseudomonas aeruginosa. The experiment is described as follows: Induced peritoneal sepsis, survival. It is filed as in vivo. The conditions noted are these: for Survival (animals alive): bacteria + Gentamycin 1.0 mg/ml i.p. On the procedure:
Mice (C3H) were induced with B. Pseudomonas aeruginosa to have peritoneal sepsis, with resultant infection injury to the lung. Fox-Dewhurst, R., et al., Am. J Respir. Crit. Care Med., 155:2030-2040 (1997). Groups of animals (n=4 per group) were treated with doses of bacteria (108-1010 cfu/ml) in the peritoneum. Injection bacteria was prepared in saline at 10×10^7 cfu/ml. 0.3 ml of bacterial solution was injected into the peritoneal cavity. After three minutes, 0.3 ml of saline or 0.5 ml of electrolyzed saline solution was injected intraperitoneally. A group of animals was treated with Gentamycin as a positive control to compare the effectiveness of 25%, 50%, and 100% electrolyzed saline solutions. This group of animals was treated at the time of bacterial inoculation with Gentamycin at a concentration of 1.0 mg/ml intraperitoneally.
Six study groups of mice were studied: saline control, Gentamycin positive control, bacteria plus 25% electrolyzed saline solution, bacteria plus 50% electrolyzed saline solution, bacteria plus 100% electrolyzed saline solution, and bacteria plus saline.

For the substance Gentamycin, the “Survival (animals alive)” value by setting is: (24 hrs, n=4) 4; (48 hrs, n=4) 4; (72 hrs, n=4) 2. Also, under “48 hours, Gentamicin 1.0 mg/ml i.p.”, the “clinical appearance of animals” value is given as “still normal with no sign of sickness”. For the setting “72 hours, Gentamicin 1.0 mg/ml i.p.”, the survival rate is 50%. This substance also yielded an animals died (72 hours, Gentamicin 1.0 mg/ml i.p., n=4) of 2.
